Reference: ChEMBL document CHEMBL1201862, “PubChem BioAssay data set” (2004)
Active and inactive are the calls of the source.

Key:
INS1 [1] = test: INS-1E mitochondrial potential rescue under cytokines – cell-based, JC-1 fluorescence ratio, dry powder, dose response (AID 488931); assay type: functional; settings: Rattus norvegicus
INS1 [2] = test: beta-cell survival under cytokine stress – INS-1E, ATP luminescence, dry powder, dose response (AID 488844); assay type: functional, cell-based; settings: Rattus norvegicus
INS1 [3] = test: suppression of NO production in INS-1E cells – cell-based, Griess absorbance, dry powder, set 2, dose response (AID 488868); assay type: functional; settings: Rattus norvegicus
Orexin receptor type 2 [4] = molecular target: T1, Orexin receptor type 2 (Homo sapiens, UniProt O43614); test: Counterscreen assay for antagonists of the orexin 1 receptor (OX1R; HCRTR1): Fluorescence-based cell-based dose response assay for antagonists of the orexin 2 receptor (OX2R; HCRTR2), run by assay provider.; assay type: functional
Orexin receptor type 2 [5] = molecular target: T1, Orexin receptor type 2; test: Counterscreen assay for antagonists of the orexin 1 receptor (OX1R; HCRTR1): Homogeneous Time Resolved Fluorescence (HTRF)-based cell-based dose response assay for antagonists of the orexin 2 receptor (OX2R; HCRTR2), run by assay provider.; assay type: functional
[6] = molecular target: Peroxisome proliferator-activated receptor gamma/Nuclear receptor corepressor 2 (Homo sapiens, UniProt P37231+Q9Y618); test: Counterscreen for NR2E3 inverse agonists: TR-FRET-based biochemical high throughput dose response assay to identify inverse agonists of the interaction between peroxisome proliferator-activated receptor gamma (PPARg) and nuclear receptor co-repressor 2 (NCOR2).; assay type: functional
[7] = molecular target: T2, Orexin/Hypocretin receptor type 1 (Homo sapiens, UniProt O43613); test: Fluorescence-based cell-based high throughput dose response assay for antagonists of the orexin 1 receptor (OX1R; HCRTR1). [Related pubchem assays (depositor defined):AID434989, AID435008, AID463079, AID485270, AID492963, AID492964, AID492965, AID493232, AID504717, AID504718]; assay type: functional
CHO-K1 = test: Counterscreen for antagonists of the orexin 1 receptor (OX1R; HCRTR1): Homogeneous time resolved fluorescence (HTRF)-based cell-based dose response assay to identify antagonists of the parental CHO-K1 cell line. [Related pubchem assays (depositor defined):AID434989, AID435008, AID463079, AID485270, AID492963, AID492964, AID492965, AID493232, AID504699, AID504701]; assay type: functional; settings: Cricetulus griseus;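 further: potency for inhibition of ATP-stimulated IP1 production as antagonists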
[8] = molecular target: T2, Orexin/Hypocretin receptor type 1; test: Homogeneous Time Resolved Fluorescence (HTRF)-based cell-based high throughput dose response assay for antagonists of the orexin 1 receptor (OX1R; HCRTR1). [Related pubchem assays (depositor defined):AID434989, AID435008, AID463079, AID485270, AID492963, AID492964, AID492965, AID493232, AID504717, AID504718]; assay type: functional
[9] = molecular target: Photoreceptor-specific nuclear receptor (Homo sapiens, UniProt Q9Y5X4); test: ligands suppressing NR2E3 nuclear receptor activity – biochemical, TR-FRET, dose response (AID 463256); assay type: functional
[10] = Counterscreen for antagonists of the orexin 1 receptor (OX1R; HCRTR1): Fluorescence-based cell-based high throughput dose response assay to identify antagonists of the parental CHO cell line. [Related pubchem assays (depositor defined):AID434989, AID435008, AID463079, AID485270, AID492963, AID492964, AID492965, AID493232, AID504699, AID504701]; assay type: functional
[11] = DRD fibroblast viability loss – cell-based, non-viral oncogenic, luminescence, dose response (AID 1934); assay type: functional; settings: Homo sapiens
BJ [12] = test: BJ-TERT fibroblast viability loss – cell-based, RAS-independent, luminescence, dose response (AID 1933); assay type: functional; settings: Homo sapiens
[13] = reduction of Shn3 3'UTR-driven luciferase in osteoblasts – cell-based, Clone20 osteoblasts, firefly luciferase, cherry-picked, dose response (AID 624132); assay type: functional;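 further: firefly luciferase luminescence from reporter carrying the Shn3 3'UTR in osteoblasts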
BJ [14] = test: BJ-TERT-LT-ST fibroblast viability loss – cell-based, RAS-independent, luminescence, dose response (AID 1935); assay type: functional; settings: Homo sapiens;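 further: BJ fibroblasts immortalized with TERT plus LT and ST oncogenes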
[15] = molecular target: T3, Short transient receptor potential channel 4 (Mus musculus, UniProt Q9QUQ5); test: calcium entry via TRPC4 opening agents – cell-based, HEK293 TRPC4/mu-opioid, Fluo-4 calcium, dose response (AID 434937); assay type: functional
T3 sequence (Q9QUQ5 whole entry): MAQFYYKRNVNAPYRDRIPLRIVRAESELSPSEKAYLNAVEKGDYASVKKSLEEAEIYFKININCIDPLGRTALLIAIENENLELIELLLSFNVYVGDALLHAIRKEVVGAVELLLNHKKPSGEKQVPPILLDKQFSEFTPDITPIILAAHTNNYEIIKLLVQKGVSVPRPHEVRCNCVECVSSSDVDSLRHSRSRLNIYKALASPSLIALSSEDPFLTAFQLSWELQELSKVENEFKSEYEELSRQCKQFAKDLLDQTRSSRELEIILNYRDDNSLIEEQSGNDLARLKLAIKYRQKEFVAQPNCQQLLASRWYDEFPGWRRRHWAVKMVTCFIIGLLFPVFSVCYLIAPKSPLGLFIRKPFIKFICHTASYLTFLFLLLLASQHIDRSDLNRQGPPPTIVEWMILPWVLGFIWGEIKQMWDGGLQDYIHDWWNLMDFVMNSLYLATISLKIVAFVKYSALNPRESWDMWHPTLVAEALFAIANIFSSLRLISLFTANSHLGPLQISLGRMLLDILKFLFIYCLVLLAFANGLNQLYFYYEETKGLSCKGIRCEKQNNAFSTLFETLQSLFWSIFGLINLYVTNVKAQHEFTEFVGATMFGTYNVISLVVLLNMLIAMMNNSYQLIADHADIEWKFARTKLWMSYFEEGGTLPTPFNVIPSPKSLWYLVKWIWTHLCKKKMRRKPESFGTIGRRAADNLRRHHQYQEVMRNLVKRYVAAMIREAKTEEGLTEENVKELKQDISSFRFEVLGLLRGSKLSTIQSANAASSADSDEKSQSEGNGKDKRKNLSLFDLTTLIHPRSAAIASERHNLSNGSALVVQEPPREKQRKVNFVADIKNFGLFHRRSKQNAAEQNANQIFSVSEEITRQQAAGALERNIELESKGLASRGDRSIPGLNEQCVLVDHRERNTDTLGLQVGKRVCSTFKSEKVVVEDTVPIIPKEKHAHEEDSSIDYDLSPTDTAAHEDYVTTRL

[16] = luciferase reporter signal suppression in cells – H4 neuroglioma cells, luminescence, dose response (AID 1990); assay type: functional, cell-based
INS1 [17] = test: INS-1E survival protection against cytokine death – cell-based, luminescence, retest, dose response (AID 449756); assay type: functional; settings: Rattus norvegicus;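 further: cell death triggered by IL-1 beta plus TNF-alpha plus IFN-gamma mixture; protective hits raise ATP signal compared with cytokine alone wells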
[18] = alpha-synuclein stem-loop luciferase translation blockers – H4 neuroglioma cells, luminescence, confirmation (AID 1988); assay type: functional, cell-based
Beta-galactosidase = Beta-galactosidase (Escherichia coli, UniProt Q8VNN2); test: detection-enzyme interference by beta-gal modulators – biochemical, E. coli enzyme, set 3, artefact control for CCR6 antagonist project, dose response (AID 504712); assay type: functional
[19] = fluconazole-exposed Candida albicans growth modulators – fluorescence, retest, confirmation (AID 2467); assay type: functional, cell-based
BJ [20] = test: cells; assay type: functional, cell-based; settings: Homo sapiens
BJ [21] = test: growth inhibition of engineered Ras-driven BJ cells – cell-based, alamar blue fluorescence, cherrypicked samples, dose response (AID 2631); assay type: functional; settings: Homo sapiens;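 further: confirmatory dose-response assay in RAS-dependent BJ fibroblasts engineered with TERT, LT and ST, with cytotoxicity read by fluorescence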
[22] = NIH-3T3 fibroblast cytotoxicity, dose response, cytotoxicity control, cell-based, fluorescence, Alamar Blue, secondary assay (AID 2327); assay type: functional;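 further: NIH-3T3 mouse fibroblasts cultured with fluconazole at 8 µg/mL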
[23] = non-specific 3'UTR reporter inhibition in Clone20-Shn3RL – cell-based, Renilla luciferase, cherry-picked, counter-screen for Shn3 inhibitor project, dose response (AID 624133); assay type: functional
[24] = Luminescence Cell-Based Dose Response HTS to Identify Inhibitors of 5'UTR Stem-Loop Driven Prion Protein mRNA Translation in H4 Neuroglioblastoma Cells. [Related pubchem assays: 1827 (Project Summary), 1813 (Primary HTS)]; assay type: functional
Insulin-degrading enzyme [25] = molecular target: T4, Insulin-degrading enzyme (Homo sapiens, UniProt P14735); test: cellular IDE activation of Abeta substrate cleavage – fluorescence polarization, HEK cells, dose response (AID 588439); assay type: functional, cell-based
T4 sequence (P14735 whole entry): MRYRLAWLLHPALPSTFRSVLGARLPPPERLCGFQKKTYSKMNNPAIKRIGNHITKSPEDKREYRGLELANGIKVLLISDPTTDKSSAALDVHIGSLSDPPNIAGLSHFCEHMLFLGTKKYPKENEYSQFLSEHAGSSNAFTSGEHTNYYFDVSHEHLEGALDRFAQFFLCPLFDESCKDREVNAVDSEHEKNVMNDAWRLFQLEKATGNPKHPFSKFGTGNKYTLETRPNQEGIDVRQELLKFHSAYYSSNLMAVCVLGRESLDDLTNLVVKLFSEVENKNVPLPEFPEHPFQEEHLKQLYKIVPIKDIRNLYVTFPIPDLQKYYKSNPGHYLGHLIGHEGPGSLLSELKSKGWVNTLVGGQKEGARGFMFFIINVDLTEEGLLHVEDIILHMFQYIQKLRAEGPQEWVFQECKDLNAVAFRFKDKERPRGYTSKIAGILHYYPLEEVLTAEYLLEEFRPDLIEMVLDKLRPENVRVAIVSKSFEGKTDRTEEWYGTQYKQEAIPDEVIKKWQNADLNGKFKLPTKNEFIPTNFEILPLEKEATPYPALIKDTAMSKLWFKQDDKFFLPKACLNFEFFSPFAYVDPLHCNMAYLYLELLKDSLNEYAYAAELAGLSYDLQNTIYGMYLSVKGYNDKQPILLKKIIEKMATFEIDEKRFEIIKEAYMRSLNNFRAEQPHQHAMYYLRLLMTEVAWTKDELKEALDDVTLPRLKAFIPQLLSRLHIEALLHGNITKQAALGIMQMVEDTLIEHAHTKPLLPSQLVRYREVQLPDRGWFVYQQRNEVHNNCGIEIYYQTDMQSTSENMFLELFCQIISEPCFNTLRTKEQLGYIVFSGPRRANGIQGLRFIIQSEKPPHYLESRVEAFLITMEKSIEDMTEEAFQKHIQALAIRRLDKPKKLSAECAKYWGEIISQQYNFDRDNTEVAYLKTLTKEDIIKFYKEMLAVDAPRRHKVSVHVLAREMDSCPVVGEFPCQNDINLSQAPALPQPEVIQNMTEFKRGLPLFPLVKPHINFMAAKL

[26] = loss of viability in HepG2 cells – cell-based, CellTiter-Glo, cherry-picked, cytotoxicity control for Shn3 inhibitor project, dose response (AID 624134); assay type: functional
HEK293 [27] = test: membrane integrity loss in HEK cells – cell-based, fluorescence, cytotoxicity control for IDE activator project, dose response (AID 588440); assay type: functional; settings: Homo sapiens;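 further: cytotoxicity by LDH release measuring loss of membrane integrity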
[28] = HEK-293T viability loss after treatment – luminescence, T-cell screen hits, cytotoxicity control for TCR NF-kB inhibitor project, dose response (AID 489026); assay type: functional, cell-based;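 further: cells exposed to compound about 14 hours before the viability readout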
HEK293 [29] = test: optical interference in Abeta FP readout, dose response, artefact control for IDE activator project, biochemical, fluorescence polarization (AID 588442); assay type: functional, cell-based; settings: Homo sapiens
Insulin-degrading enzyme [30] = molecular target: T4, Insulin-degrading enzyme; test: recombinant IDE activation, cell-free – biochemical, fluorescence polarization, counter-screen for IDE activator project, dose response (AID 588681)
Streptococcus = test: GAS UMAA2166 growth inhibition – luminescence, BacTiterGlo, counter-screen for streptokinase expression inhibitor project, dose response (AID 1915); assay type: functional, organism-based;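 further: potency for reduction of bacterial viability or growth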
[31] = test system: Streptococcus sp. 'group A'; test: Streptococcus pyogenes SK(-)GAS viability under kanamycin – luminescence, BacTiterGlo, confirmation, counter-screen for streptokinase expression inhibitor project, dose response (AID 1900); assay type: functional, organism-based

T1 sequence (O43614 whole entry): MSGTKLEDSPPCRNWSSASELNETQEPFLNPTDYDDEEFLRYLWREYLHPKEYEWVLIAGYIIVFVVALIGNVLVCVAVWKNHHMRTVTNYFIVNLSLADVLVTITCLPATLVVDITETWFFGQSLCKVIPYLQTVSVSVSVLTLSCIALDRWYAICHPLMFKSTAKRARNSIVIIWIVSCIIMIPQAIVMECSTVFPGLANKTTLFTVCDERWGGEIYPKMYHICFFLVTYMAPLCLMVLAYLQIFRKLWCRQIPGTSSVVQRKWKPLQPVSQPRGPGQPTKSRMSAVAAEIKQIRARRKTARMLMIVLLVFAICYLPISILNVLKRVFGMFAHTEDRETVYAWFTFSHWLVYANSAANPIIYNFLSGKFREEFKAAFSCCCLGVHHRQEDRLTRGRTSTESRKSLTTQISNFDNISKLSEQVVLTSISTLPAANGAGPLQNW
T2 sequence (O43613 whole entry): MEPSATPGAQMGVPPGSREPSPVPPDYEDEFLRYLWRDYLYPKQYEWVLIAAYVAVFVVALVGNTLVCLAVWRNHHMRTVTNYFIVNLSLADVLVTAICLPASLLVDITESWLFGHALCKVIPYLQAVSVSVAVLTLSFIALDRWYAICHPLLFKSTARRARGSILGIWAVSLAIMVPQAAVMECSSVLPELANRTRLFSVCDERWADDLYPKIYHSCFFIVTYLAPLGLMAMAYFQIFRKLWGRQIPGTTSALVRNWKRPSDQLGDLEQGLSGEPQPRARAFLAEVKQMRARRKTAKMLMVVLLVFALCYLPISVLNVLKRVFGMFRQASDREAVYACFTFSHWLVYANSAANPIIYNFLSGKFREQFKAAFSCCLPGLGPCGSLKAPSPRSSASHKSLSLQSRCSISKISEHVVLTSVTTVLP
Photoreceptor-specific nuclear receptor, sequence (Q9Y5X4 whole entry): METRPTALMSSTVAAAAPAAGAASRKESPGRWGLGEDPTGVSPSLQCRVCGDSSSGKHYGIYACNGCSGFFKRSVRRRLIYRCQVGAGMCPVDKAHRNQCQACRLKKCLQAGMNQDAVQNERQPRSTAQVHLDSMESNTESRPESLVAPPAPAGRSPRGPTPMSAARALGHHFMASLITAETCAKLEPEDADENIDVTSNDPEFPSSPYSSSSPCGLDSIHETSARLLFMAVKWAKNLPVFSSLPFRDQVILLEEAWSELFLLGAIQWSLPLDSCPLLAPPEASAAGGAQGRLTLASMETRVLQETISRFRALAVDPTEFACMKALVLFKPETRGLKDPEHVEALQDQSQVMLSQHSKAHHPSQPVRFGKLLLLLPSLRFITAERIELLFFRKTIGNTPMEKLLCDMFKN
Beta-galactosidase, sequence (Q8VNN2 whole entry): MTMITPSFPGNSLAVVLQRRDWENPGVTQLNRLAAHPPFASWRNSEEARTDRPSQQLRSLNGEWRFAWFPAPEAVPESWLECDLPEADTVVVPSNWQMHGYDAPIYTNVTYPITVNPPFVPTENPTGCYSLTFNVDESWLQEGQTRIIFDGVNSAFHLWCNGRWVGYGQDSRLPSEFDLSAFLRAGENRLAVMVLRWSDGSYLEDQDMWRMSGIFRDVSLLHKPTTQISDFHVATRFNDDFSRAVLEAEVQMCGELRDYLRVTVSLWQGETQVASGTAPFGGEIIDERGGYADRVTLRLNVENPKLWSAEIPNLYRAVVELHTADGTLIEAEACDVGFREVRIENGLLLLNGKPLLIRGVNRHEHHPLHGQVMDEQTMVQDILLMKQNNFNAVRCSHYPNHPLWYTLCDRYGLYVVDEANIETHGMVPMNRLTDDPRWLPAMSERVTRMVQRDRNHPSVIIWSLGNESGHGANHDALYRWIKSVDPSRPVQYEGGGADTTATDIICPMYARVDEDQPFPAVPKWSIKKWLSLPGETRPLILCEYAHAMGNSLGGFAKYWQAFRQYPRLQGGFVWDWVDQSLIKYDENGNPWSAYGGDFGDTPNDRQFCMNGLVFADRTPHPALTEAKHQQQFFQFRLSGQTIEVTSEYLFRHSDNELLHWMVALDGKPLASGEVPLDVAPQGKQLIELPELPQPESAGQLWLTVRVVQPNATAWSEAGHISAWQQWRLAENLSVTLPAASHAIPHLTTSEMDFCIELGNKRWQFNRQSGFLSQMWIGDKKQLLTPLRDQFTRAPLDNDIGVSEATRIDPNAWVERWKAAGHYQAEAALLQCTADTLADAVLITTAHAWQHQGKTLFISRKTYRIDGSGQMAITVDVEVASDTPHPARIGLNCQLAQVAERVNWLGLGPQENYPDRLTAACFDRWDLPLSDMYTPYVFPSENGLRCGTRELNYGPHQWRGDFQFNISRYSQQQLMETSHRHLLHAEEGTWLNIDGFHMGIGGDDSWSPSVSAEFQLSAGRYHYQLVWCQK

C[C@@H]1CN([C@@H](C)CO)C(=O)c2cccc(NC(=O)Nc3ccc(F)cc3)c2O[C@H]1CN(C)S(=O)(=O)c1ccc(Cl)cc1
AC50 (INS1 [1]): 95.8 µM (active) | AC50 (INS1 [2]): 7.24 µM (active) | AC50 (INS1 [3]): 27.4 µM (active)

Cc1nc2ccc(NC(=O)c3oc4ccc(F)cc4c3C)cc2s1
IC50 (Orexin receptor type 2 [4]): > 88.8 µM (inactive) | IC50 (Orexin receptor type 2 [5]): > 50 µM (inactive) | IC50 [6]: 8.73 µM (active) | IC50 [7]: 1.76 µM (active) | IC50 (CHO-K1): > 66.2 µM (inactive) | IC50 [8]: 0.386 µM (active) | IC50 [9]: > 39.8 µM (not active) | IC50 [10]: > 49.7 µM (inactive)

CNC[C@H](CC1CCCCC1)NC[C@H](Cc1ccccc1)NCCC12CC3CC(CC(C3)C1)C2
EC50 [11]: 4.21 µM (active) | EC50 (BJ [12]): 2.64 µM (inconclusive) | AC50 [13]: 5.51 µM (active) | EC50 (BJ [14]): 2 µM (active) | EC50 [15]: 8.41 µM (active) | EC50 [16]: 5.5 µM (active) | AC50 (INS1 [17]): 3.77 µM (active) | EC50 [18]: > 120 µM (not active) | IC50 (Beta-galactosidase): > 66.6 µM (inactive) | EC50 [19]: 3.71 µM (active) | EC50 (BJ [20]): 5.14 µM (inconclusive) | EC50 (BJ [21]): 0.509 µM (inconclusive) | EC50 [22]: 136 µM (inconclusive) | AC50 [23]: 7.45 µM (active) | EC50 [24]: > 120 µM (not active) | EC50 (Insulin-degrading enzyme [25]): 7.02 µM (active) | AC50 [26]: 4.47 µM (active) | IC50 (HEK293 [27]): 3.37 µM (active) | IC50 [28]: 22.8 µM (inactive) | EC50 (HEK293 [29]): > 55.9 µM (inactive) | EC50 (Insulin-degrading enzyme [30]): > 54.7 µM (inactive) | EC50 (Streptococcus): 8.1 µM (active) | EC50 [31]: 3.27 µM (active)
